Test results as given in US10913746B2, “Substituted 4-phenylpiperidines, their preparation and use” (The Trustees of Columbia University in the City of New York, priority 2014, dated 2021).
Counter-ions that a name gives are not always drawn.

What was measured:
Abca4−/− mouse model = assay: Bisretinoid accumulation in Abca4−/− mouse model; type: in vivo; conditions: Example 112, present tense; 25 mg/kg for 12 weeks, mice starting at 17 weeks old
Method: (§1) Abca4−/− mice have A2E levels in the ˜15-19 pmoles/eye range at 17 weeks old. Mice, starting at 17 weeks old, were treated with 25 mg/kg of Compound 81 for 12 weeks.

serum RBP4 = serum RBP4 (Mus musculus (Mouse), UniProt Q00724); assay: Serum RBP4 levels in Abca4−/− mice; type: in vivo; conditions: Example 112, present tense; 25 mg/kg for 12 weeks, mice starting at 17 weeks old
Method: as §1

[1] = test system: subject afflicted with AMD or Stargardt disease; assay: Administration to the eye of a subject afflicted with AMD or Stargardt disease; type: in vivo; conditions: Example 113, present tense; administered to the eye
Method: An amount of a compound 81 is administered to the eye of a subject afflicted with AMD.
An amount of a compound 81 is administered to the eye of a subject afflicted with Stargardt disease.

RBP4 = RBP4 (Homo sapiens (Human), UniProt P02753); conditions: cited from earlier work

O=C(c1n[nH]c2c1CCNC2)N1CCC(c2cccc(F)c2Cl)CC1 [Compound 40, (4-(2-Chloro-3-fluorophenyl)piperidin-1-yl)(4,5,6,7-tetrahydro-1Hpyrazolo[3,4-c]pyridin-3-yl)methanone Hydrochloride]
bisretinoid accumulation in Abca4−/− mouse model (Abca4−/− mouse model): inhibit bisretinoid accumulation | serum RBP4 reduction (serum RBP4): significant serum RBP4 reduction

O=C(c1n[nH]c2c1CCNC2)N1CCC(c2ccc(F)c(F)c2C(F)(F)F)CC1 [Compound 34]
bisretinoid accumulation in Abca4−/− mouse model (Abca4−/− mouse model): inhibit bisretinoid accumulation | serum RBP4 reduction (serum RBP4): significant serum RBP4 reduction

O=C(c1n[nH]c2c1CNCC2)N1CCC(c2ccc(F)c(F)c2C(F)(F)F)CC1 [Compound 36, (4-(3,4-Difluoro-2-(trifluoromethyl)phenyl)piperidin-1-yl)(4,5,6,7-tetrahydro-1H-pyrazolo[4,3-c]pyridin-3-yl)methanone Trifluoroacetic Acid Salt]
bisretinoid accumulation in Abca4−/− mouse model (Abca4−/− mouse model): inhibit bisretinoid accumulation | serum RBP4 reduction (serum RBP4): significant serum RBP4 reduction

O=C(c1n[nH]c2c1CCNC2)N1CCC(c2cccc(F)c2C(F)(F)F)CC1 [Compound 30, (4-(3-Fluoro-2-(trifluoromethyl)phenyl)piperidin-1-yl)(4,5,6,7-tetrahydro-1H-pyrazolo[3,4-c]pyridin-3-yl)methanone Hydrochloride]
bisretinoid accumulation in Abca4−/− mouse model (Abca4−/− mouse model): inhibit bisretinoid accumulation | serum RBP4 reduction (serum RBP4): significant serum RBP4 reduction

O=C(c1n[nH]c2c1CNC2)N1CCC(c2ccc(F)c(F)c2C(F)(F)F)CC1 [Compound 38, (4-(3,4-Difluoro-2-(trifluoromethyl)phenyl)piperidin-1-yl)(1,4,5,6-tetrahydropyrrolo[3,4-c]pyrazol-3-yl)methanone Hydrochloride]
bisretinoid accumulation in Abca4−/− mouse model (Abca4−/− mouse model): inhibit bisretinoid accumulation | serum RBP4 reduction (serum RBP4): significant serum RBP4 reduction

CC(=O)N1CCc2c(C(=O)N3CCC(c4ccc(F)c(F)c4C(F)(F)F)CC3)n[nH]c2C1 [Compound 81, 1-(3-(4-(3,4-Difluoro-2-(trifluoromethyl)phenyl)piperidine-1-carbonyl)-4,5-dihydro-1H-pyrazolo[3,4-c]pyridin-6(7H)-yl)ethanone]
treatment of subject afflicted with AMD [1]: effective to treat the subject | treatment of subject afflicted with Stargardt disease [1]: effective to treat the subject

CC1=C(/C=C/C(C)=C/C=C/C(C)=C/C(=O)Nc2ccc(O)cc2)C(C)(C)CCC1 [fenretinide, N-(4-hydroxy-phenyl)retinamide]
binding to RBP4, displacement of all-trans retinol (RBP4): bind to RBP4

O=C(c1n[nH]c2c1CNCC2)N1CCC(c2cccc(F)c2Cl)CC1 [Compound 42, (4-(2-Chloro-3-fluorophenyl)piperidin-1-yl)(4,5,6,7-tetrahydro-1Hpyrazolo[4,3-c]pyridin-3-yl)methanone Hydrochloride]
bisretinoid accumulation in Abca4−/− mouse model (Abca4−/− mouse model): inhibit bisretinoid accumulation | serum RBP4 reduction (serum RBP4): significant serum RBP4 reduction
